Assay results from patent publication US7452688B2, “Transformed cell with enhanced sensitivity to antifungal compound and use thereof” (Sumitomo Chemical Company, Limited, priority 2002, dated 2008).

What was measured:
Assay type in all cases: cell-based, Saccharomyces cerevisiae
[1] = system: AH22 strain; assay: Antifungal compound sensitivity test, control yeast AH22 strain (Example 3); conditions: 30° C. 48 hours, absorbance at 600 nm relative to 0 ppm = 100
Method: The transformed budding yeast AH22-BcOS1 prepared in Example 2 was cultured while shaking at 30° C. for 18 hours in a Glu-Leu medium. As a control, the AH22 strain was similarly cultured while shaking at 30° C. for 18 hours in a Glu medium. The absorbance at 600 nm of each of the grown transformed budding yeasts in a cell suspension was measured, and a cell suspension diluted with sterilized distilled water to the absorbance of 0.1 was prepared. Further, a cell suspension in which the aforementioned cell suspension of the transformed budding yeast AH22-BcOS1 was diluted 200-fold with a Glu-Leu medium, and a cell suspension in which the aforementioned cell suspension of the AH22 strain was diluted 200-fold with a Glu medium were prepared. A solution in which each of Compounds (1) to (3) was dissolved in dimethylsulfoxide (DMSO) to the concentration of 60 ppm, a solution in which each of Compounds (4) and (5) was dissolved in dimethylsulfoxide (DMSO) to the concentration of 2000 ppm, and a solution in which each of Compounds (6) and (7) was dissolved in dimethylsulfoxide (DMSO) to the concentration of 20 ppm were prepared, and two microplates were prepared in which each 2.0 μL per well of the Compound solution and DMSO as a control were dispensed into two wells. In one microplate among them, each 200 μL of cell suspensions of the transformed budding yeast AH22-BcOS1 which had been prepared by dilution as described above was dispensed, and cultured by allowing to stand at 30° C. for 48 hours. In another microplate, each 200 μL of the cell suspensions of the control yeast AH22 strain which had been prepared by dilution as described above was dispensed, and cultured by allowing to stand at 30° C. for 48 hours. After culturing, the absorbance at 600 nm of each well was measured with a microplate reader.
Degree of growths of both of the transformed budding yeasts cultured under the presence of each of Compound (1) to (7) and budding yeast as a control therefor are shown in Table 1. Degree of growths of both of the transformed budding yeasts and budding yeasts as a control therefor are expressed by a relative value in percentage, letting the absorbance at 600 nm in a well having the concentration of the aforementioned Compound of 0 ppm to be 100. It was confirmed that an inhibiting degree of growth of TM182-BcOS1 by each test substance was grater than an inhibiting degree of growth of AH22-BcOS1 by each test substance, and the TM182-BcOS1 was a transformed cell with the enhanced sensitivity to an antifungal compound as compared with AH22-BcOS1.

[2] = system: transformed budding yeast TM182-FoOS1; assay: Antifungal compound sensitivity test of transformed budding yeast TM182-FoOS1 (Example 13); conditions: for Degree of growth of budding yeast TM182-FoOS1 Gal-Ura-Leu medium: control medium, 30° C. 51 hours; for Degree of growth of budding yeast TM182-FoOS1 Gul-Ura-Leu medium: 30° C. 25 hours
Method: Similarly, the transformed budding yeast TM182-FoOS1 prepared in Example 12 was cultured at 30° C. for 18 hours in a Glu-Ura-Leu medium. The absorbance at 600 nm of the grown transformed budding yeast in a cell suspension was measured, and a cell suspension diluted with sterilized distilled water to the absorbance of 0.1 was prepared. Further, a cell suspension in which the transformed budding yeast TM182-FoOS1 was diluted 50-fold with a Glu-Ura-Leu medium and, as a control, a cell suspension in which the yeast was diluted 50-fold with a Gal-Ura-Leu medium were prepared.
A solution in which each of Compounds (1) to (3) was dissolved in dimethylsulfoxide (DMSO) to the concentration of 600 ppm, a solution in which each of Compounds […] and (5) was dissolved in dimethylsulfoxide (DMSO) to the concentration of 2000 ppm, and a solution in which each of Compounds (6) and (7) was dissolved in dimethylsulfoxide (DMSO) to the concentration of 20 ppm were prepared, and two microplates were prepared in which each 2.0 μL per well of the Compound-DMSO solution and DMSO as a control were dispensed into 2 wells. In one microplate among them, each 100 μL of cell suspensions of the transformed budding yeast TM182-FoOS1 which had been prepared by dilution with a Glu-Ura-Leu medium as described above was dispensed, and cultured by allowing to stand at 30° C. for 25 hours. In another microplate, as described above, as a control, each 100 μL of cell suspensions of the transformed budding yeast TM182-FoOS1 which had been prepared by dilution with a Gal-Ura-Leu medium was dispensed, and cultured at 30° C. for 51 hours. After culturing, the absorbance at 600 nm of each well was measured with a microplate reader.
A degree of growth of the transformed budding yeast is expressed as a relative value in percentage, letting the absorbance at 600 nm at the concentration of the Compound of 0 ppm to be 100. It was confirmed that an inhibiting degree of growth of the transformed budding yeast TM182-FoOS1 by each test substance was grater than an inhibiting degree of growth of the transformed budding yeast AH22-FoOS1 by each test substance, and the transformed budding yeast TM182-FoOS1 was a transformed cell with the enhanced sensitivity to an antifungal compound as compared with the transformed budding yeast AH22-FoOS1.

[3] = system: transformed budding yeast TM182-BcOS1-I365S; assay: Antifungal compound sensitivity test of transformed budding yeast TM182-BcOS1-I365S (Example 6); conditions: final concentration 6 ppm, 30° C. 67 hours; for Degree of growth of budding yeast (%) TM182-BcOS1-I365S Gal-Ura-Leu medium: control medium

Structure (SMILES)	Degree of growth of budding yeast (%) AH22 Glu medium ([1]; final concentration 0.6 ppm) [%]	Degree of growth of budding yeast TM182-FoOS1 Gal-Ura-Leu medium ([2]; final concentration 6 ppm) [%]	Degree of growth of budding yeast TM182-FoOS1 Gul-Ura-Leu medium ([2]; final concentration 6 ppm) [%]	Degree of growth of budding yeast (%) TM182-BcOS1-I365S Gal-Ura-Leu medium [3] [%]	Degree of growth of budding yeast (%) TM182-BcOS1-I365S Glu-Ura-Leu medium [3] [%]	Degree of growth of budding yeast (%) AH22 Glu medium ([1]; final concentration 20 ppm) [%]	Degree of growth of budding yeast TM182-FoOS1 Gal-Ura-Leu medium ([2]; final concentration 20 ppm) [%]	Degree of growth of budding yeast TM182-FoOS1 Gul-Ura-Leu medium ([2]; final concentration 20 ppm) [%]	Degree of growth of budding yeast (%) AH22 Glu medium ([1]; final concentration 0.2 ppm) [%]	Degree of growth of budding yeast TM182-FoOS1 Gal-Ura-Leu medium ([2]; final concentration 0.2 ppm) [%]	Degree of growth of budding yeast TM182-FoOS1 Gul-Ura-Leu medium ([2]; final concentration 0.2 ppm) [%]
CC12CC1(C)C(=O)N(c1cc(Cl)cc(Cl)c1)C2=O (stereo not drawn) [Compound (1), Procymidone]	99	116	26	99	9	–	–	–	–	–	–
CC(C)NC(=O)N1CC(=O)N(c2cc(Cl)cc(Cl)c2)C1=O [Compound (2), Iprodione]	99	87	55	88	11	–	–	–	–	–	–
C=CC1(C)OC(=O)N(c2cc(Cl)cc(Cl)c2)C1=O (stereo not drawn) [Compound (3), Vinclozolin]	98	99	22	92	9	–	–	–	–	–	–
O=[N+]([O-])c1c(Cl)c(Cl)c(Cl)c(Cl)c1Cl [Compound (4), Quintozene]	–	–	–	–	–	96	104	20	–	–	–
COP(=S)(OC)Oc1c(Cl)cc(C)cc1Cl [Compound (5), Tolclofos-methyl]	–	–	–	–	–	97	80	57	–	–	–
N#Cc1c[nH]cc1-c1cccc2c1OC(F)(F)O2 [Compound (6), Fludioxonil]	–	–	–	–	–	–	–	–	99	99	7
N#Cc1c[nH]cc1-c1cccc(Cl)c1Cl [Compound (7), Fenpiclonil]	–	–	–	–	–	–	–	–	101	89	21
